Experimental findings from US10889555B2, “Sulfonamide compound or salt thereof” (Taiho Pharmaceutical Co., Ltd., priority 2016, dated 2021) are described below.

For orientation: IC50 means the concentration at which inhibition is half-maximal.

The subject of this assay is HCC 1806 cells. Nature of the assay: Cell proliferation inhibitory effect on human breast cancer cell line (crystal violet, 72 hours). Format: cell-based. The settings on record: Homo sapiens, HCC1806, 72 h, read-out: Cell growth suppression IC50. As for the experimental part: Human derived breast cancer cell line HCC 1806 cells were daily passaged at a cell density not exceeding 80% in ATCC recommended Roswell Park Memorial Institute medium (RPMI-1640) containing 10% fetal bovine serum (FBS). In order to start the test of cell proliferation inhibitory activity, HCC 1806 cells were suspended in the above medium, after seeing at 180 μL in each well of a 96-well flat bottom plate so that the number of cells per well was 2,000, the cells were cultured at 37° C. for 1 day in an incubator containing 5% carbon dioxide gas. On the next day, the test compound was dissolved in DMSO, and 20 μL of a drug additive solution diluted serially with distilled water to 10 times of the final concentration was added to each well of the culture plate of the cells, and the cells were cultured at 37° C. for 72 hours in an incubator containing 5% carbon dioxide gas. After culturing for 72 hours, 20 μL of glutaraldehyde was added to each well and allowed to stand for 30 minutes, then the plate was washed 10 times with water and was dried. 100 μL of a stain solution (0.05% crystal violet in a 20% methanol solution) was added to each well and allowed to stand for 30 minutes, then the plate was washed 10 times with water and was dried. 100 μL of an extract solution (0.1 N NaH2PO4: 100% ethanol=1:1) was added to each well and mixed, and the mixture was measured at a wavelength of 540 nm using a plate reader (MTP-450 manufactured by Corona Electric Co., Ltd.). The growth inhibition rate was calculated from the following formula, and the concentration (IC50 (μM)) of a test compound inhibiting 50% was determined. Growth inhibition rate (%)={(C−B)−(T−B)}/(C−B)×100
T: Absorbance of well to which test compound was added
C: Absorbance of wells to which no test compound was added
B: Absorbance of wells to which no cell suspension was added
`Cc1c(Cl)ccc(F)c1[C@@H](C)[C@H](NS(=O)(=O)c1ccc(Br)cc1C(N)=O)c1n[nH]c(=O)o1` [Example 25, 5-bromo-2-(N-((1S,2R)-2-(3-chloro-6-fluoro 2 methylphenyl)-1-(5-oxo-4,5-dihydro-1,3,4-oxadiazol-2-yl)propyl)sulfamoyl)benzamide]: the IC50 amounted to 590 nM.

With `Cc1c(C2CC2)ccc(F)c1[C@@H](C)[C@H](NS(=O)(=O)c1ccc(Cl)cc1C(N)=O)c1n[nH]c(=O)o1` [Example 26, 5-chloro-2-(N-((1S,2R)-2-(3-cyclopropy1-6-fluoro-2-methylphenyl)-1-(5-oxo-4,5-dihydro-1,3,4-oxadiazol-2-yl)propyl)sulfamoyl)benzamide], the IC50 was 980 nM.

As to `Cc1c(Br)ccc(F)c1[C@@H](C)[C@H](NS(=O)(=O)c1ccc(Cl)cc1C(N)=O)c1n[nH]c(=O)o1` [Example 30, 2-(N-((1S,2R)-2-(3-bromo-6-fluoro-2-methylphenyl)-1-(5-oxo-4,5-dihydro-1,3,4-oxadiazol-2-yl)propyl)sulfamoyl)-5-chlorobenzamide], the IC50 was determined as 800 nM.

As for `Cc1c(Br)ccc(F)c1[C@@H](C)[C@H](NS(=O)(=O)c1ccc(Br)cc1C(N)=O)c1n[nH]c(=O)o1` [Example 35, 5-bromo-2-(N-((1S,2R)-2-(3-bromo-6-fluoro-2-methylphenyl)-1-(5-oxo-4,5-dihydro-1,3,4-oxadiazol-2-yl)propyl)sulfamoyl)benzamide], the IC50 is 670 nM.

`Cc1ccc(F)c([C@@H](C)[C@H](NS(=O)(=O)c2cc(C(=O)N(C)C)ccc2C(N)=O)c2n[nH]c(=O)o2)c1C` [Example 37, 3-(N-((1S,2R)-2-(6-fluoro-2,3-dimethylphenyl)-1-(5-oxo-4,5-dihydro-1,3,4-oxadiazol-2-yl)propyl)sulfamoyl)-N1,N1-dimethylterephthalamide]: the IC50 was 820 nM.

Regarding `Cc1ccc(F)c([C@@H](C)[C@H](NS(=O)(=O)c2cc(C(=O)N(C)C)c(Cl)cc2C(N)=O)c2n[nH]c(=O)o2)c1C` [Example 39, 2-chloro-5-(N-((1S,2R)-2-(6-fluoro-2,3-dimethylphenyl)-1-(5-oxo-4,5-dihydro-1,3,4-oxadiazol-2-yl)propyl)sulfamoyl)-N1,N1-dimethyl terephthalamide], the IC50 came out at 230 nM.

As for `Cc1ccc(F)c([C@@H](C)[C@H](NS(=O)(=O)c2cnc(Cl)cc2C(N)=O)c2n[nH]c(=O)o2)c1C` [Example 40, 2-chloro-5-(N-((1S,2R)-2-(6-fluoro-2,3-dimethylphenyl)-1-(5-oxo-4,5-dihydro-1,3,4-oxadiazol-2-yl)propyl)sulfamoyl)isonicotinamide], the IC50 came to 590 nM.

Regarding `Cc1ccc(F)c([C@@H](C)[C@H](NS(=O)(=O)c2ccc(C(F)(F)F)cc2C(N)=O)c2n[nH]c(=O)o2)c1C` [Example 41, 2-(N-((1S,2R)-2-(6-fluoro-2,3-dimethylphenyl)-1-(5-oxo-4,5 dihydro-1,3,4-oxadiazol-2-yl)propyl)sulfamoyl)-5-(trifluoromethyl)benzamide], the IC50 was 400 nM.

As for `[2H]C([2H])([2H])[C@H](c1c(F)ccc(C)c1C)[C@H](NS(=O)(=O)c1ccc(Cl)cc1C(N)=O)c1n[nH]c(=O)o1` [Example 43, 5-chloro-2-[[(1S,2R)-3,3,3-trideuterio-2-(6-fluoro-2,3-dimethylphenyl)-1-(2-oxo-3H-1,3,4-oxadiazol-5-yl)propyl]sulfamoyl]benzamide], the half-inhibitory concentration (IC50) turned out to be 280 nM.

With `COc1cc(Cl)ccc1S(=O)(=O)N[C@H](c1n[nH]c(=O)o1)[C@H](C)c1cccc2cccc(C)c12` [Example 71, 4-chloro-2-methoxy-N-((1S,2R)-2-(8-methylnaphthalen-1-yl)-1-(5-oxo-4,5-dihydro-1,3,4-oxadiazol-2-yl)propyl)benzenesulfonamide], the IC50 stood at 790 nM.

Take `COc1cc(Cl)ccc1S(=O)(=O)N[C@H](c1n[nH]c(=O)o1)[C@H](C)c1c(F)ccc2ccccc12` [Example 76, 4-chloro-N-((1S,2R)-2-(2-fluoronaphthalen-1-yl)-1-(5-oxo-4,5-dihydro-1,3,4-oxadiazol-2-yl)propyl)-2-methoxybenzenesulfonamide]: the half-inhibitory concentration (IC50) came out at 440 nM.
